Active and inactive are the calls of the source. No cut-off for these calls is given here.
Tests used:
LAPC4 [1] = experiment: Cytotoxicity against human LAPC4 cells assessed as cell viability at 20 uM incubated for 72 hrs by resazurin dye based microplate reader assay; format: functional; conditions: read-out: Activity
DU-145 = experiment: Cytotoxicity against human DU-145 cells assessed as cell viability at 20 uM incubated for 72 hrs by resazurin dye based microplate reader assay; format: functional; conditions: read-out: Activity
LAPC4 [2] = experiment: Inhibition of colony formation in human LAPC4 cells at 10 uM incubated for 10 days by crystal violet staining based assay; format: functional; conditions: LAPC4, 240 h, time 10 day
CWR22R = experiment: Cytotoxicity against human 22Rv1 cells assessed as cell viability at 20 uM incubated for 72 hrs by resazurin dye based microplate reader assay; format: functional; conditions: read-out: Activity
LAPC4 [3] = experiment: Inhibition of colony formation in human LAPC4 cells at 5 uM incubated for 10 days by crystal violet staining based assay; format: functional, cell-based; conditions: time 10.0 day
[4] = Downregulation of AR protein expression in human LAPC4 cells assessed as AR levels at 10 uM incubated for 24 hrs by immunoblotting analysis; format: functional

SMILES	viability at 20 µM (LAPC4 [1]) [%]	viability at 20 µM (DU-145) [%]	inhibition at 10 µM (LAPC4 [2]) [%]	viability at 20 µM (CWR22R) [%]	inhibition (LAPC4 [3])	Activity [4]
Cn1nc2c(c1-c1ccc(F)cc1)C[C@@]1(C)[C@@H](CC[C@@H]3[C@@H]1CC[C@]1(C)[C@@H](O)CC[C@@H]31)C2	44	89	16	26	Active	83%
Cn1nc2c(c1-c1ccccc1)C[C@@]1(C)[C@@H](CC[C@@H]3[C@@H]1CC[C@]1(C)[C@@H](O)CC[C@@H]31)C2	51	100	2	48	Active	93%
Cc1ccc(-n2nc3c(c2C)C[C@@]2(C)[C@@H](CC[C@@H]4[C@@H]2CC[C@]2(C)[C@@H](O)CC[C@@H]42)C3)cc1	88	93	2	37	Active	
COc1ccc(-c2c3c(nn2C)C[C@@H]2CC[C@@H]4[C@H](CC[C@]5(C)[C@@H](O)CC[C@@H]45)[C@@]2(C)C3)cc1	51	≥ 100	5	33	Active	85%
Cc1c2c(nn1-c1ccc(Cl)cc1)C[C@@H]1CC[C@@H]3[C@H](CC[C@]4(C)C(=O)CC[C@@H]34)[C@@]1(C)C2	38	≥ 100	16	75	Active	
Cn1nc2c(c1-c1cccs1)C[C@@]1(C)[C@@H](CC[C@@H]3[C@@H]1CC[C@]1(C)C(=O)CC[C@@H]31)C2	31	100	4	68	Active	92%
C[C@]12Cc3cnn(-c4ccc(F)cc4)c3C[C@@H]1CC[C@@H]1[C@@H]2CC[C@]2(C)[C@@H](O)CC[C@@H]12	44	55	1	57		>=100%
Cc1c2c(nn1-c1ccc(Br)cc1)C[C@@H]1CC[C@@H]3[C@H](CC[C@]4(C)C(=O)CC[C@@H]34)[C@@]1(C)C2					Active	
Cc1c2c(nn1-c1ccc(F)cc1)C[C@@H]1CC[C@@H]3[C@H](CC[C@]4(C)C(=O)CC[C@@H]34)[C@@]1(C)C2	42	≥ 100	15	75	Active	
COc1ccc(-n2nc3c(c2C)C[C@@]2(C)[C@@H](CC[C@@H]4[C@@H]2CC[C@]2(C)C(=O)CC[C@@H]42)C3)cc1	57	≥ 100	20	77	Active	
Cn1nc2c(c1-c1ccco1)C[C@@]1(C)[C@@H](CC[C@@H]3[C@@H]1CC[C@]1(C)C(=O)CC[C@@H]31)C2	39	100	5	43	Active	97%
Cn1nc2c(c1-c1ccc(Cl)cc1)C[C@@]1(C)[C@@H](CC[C@@H]3[C@@H]1CC[C@]1(C)C(=O)CC[C@@H]31)C2	21	98	11	61	Active	67%
Cn1nc2c(c1-c1ccc(F)cc1)C[C@@]1(C)[C@@H](CC[C@@H]3[C@@H]1CC[C@]1(C)C(=O)CC[C@@H]31)C2	29	90	17	57	Active	100%
Cc1c2c(nn1-c1ccc([N+](=O)[O-])cc1)C[C@@H]1CC[C@@H]3[C@H](CC[C@]4(C)C(=O)CC[C@@H]34)[C@@]1(C)C2	48	≥ 100	26	57	Active	
Cn1nc2c(c1-c1ccc(Cl)cc1)C[C@@]1(C)[C@@H](CC[C@@H]3[C@@H]1CC[C@]1(C)[C@@H](O)CC[C@@H]31)C2	41	90	26	29	Active	91%
Cc1c2c(nn1-c1ccc(Cl)cc1)C[C@@H]1CC[C@@H]3[C@H](CC[C@]4(C)[C@@H](O)CC[C@@H]34)[C@@]1(C)C2	47	107	4	52	Active	

SMILES	viability at 20 µM (LAPC4 [1]) [%]	viability at 20 µM (DU-145) [%]	inhibition at 10 µM (LAPC4 [2]) [%]	viability at 20 µM (CWR22R) [%]	inhibition (LAPC4 [3])	Activity [4]
C[C@]12CC[C@H](O)CC1=CC[C@@H]1[C@@H]2CC[C@]2(C)C(c3cccnc3)=CC[C@@H]12 [ABIRATERONE]	100	≥ 100	70	≥ 100		88%
Cc1ccc(-c2c3c(nn2C)C[C@@H]2CC[C@@H]4[C@H](CC[C@]5(C)[C@@H](O)CC[C@@H]45)[C@@]2(C)C3)cc1	52	98	28	36	Active	96%
N#Cc1ccc(O[C@H]2CC[C@H](NC(=O)c3ccc(N4CCC(CN5CCN(c6cc7c(cc6F)C(=O)N(C6CCC(=O)NC6=O)C7=O)CC5)CC4)nn3)CC2)cc1Cl (stereo not given in full) [BAVDEGALUTAMIDE]	5	85	7	96		14%
COc1ccc(-n2ncc3c2C[C@@H]2CC[C@@H]4[C@H](CC[C@]5(C)[C@@H](O)CC[C@@H]45)[C@@]2(C)C3)cc1	43	97	0	75		>=100%
Cc1c2c(nn1-c1ccc([N+](=O)[O-])cc1)C[C@@H]1CC[C@@H]3[C@H](CC[C@]4(C)[C@@H](O)CC[C@@H]34)[C@@]1(C)C2	74	85	11	58	Active	
Cc1c2c(nn1-c1ccc(Br)cc1)C[C@@H]1CC[C@@H]3[C@H](CC[C@]4(C)[C@@H](O)CC[C@@H]34)[C@@]1(C)C2	52	89	5	50	Active	
Cc1ccc(-n2nc3c(c2C)C[C@@]2(C)[C@@H](CC[C@@H]4[C@@H]2CC[C@]2(C)C(=O)CC[C@@H]42)C3)cc1	87	≥ 100	54	97	Active	
C[C@]12Cc3cnn(-c4ccc([N+](=O)[O-])cc4)c3C[C@@H]1CC[C@@H]1[C@@H]2CC[C@]2(C)[C@@H](O)CC[C@@H]12	40	99	15	97		>=100%
C[C@]12Cc3cnn(-c4ccc(Br)cc4)c3C[C@@H]1CC[C@@H]1[C@@H]2CC[C@]2(C)[C@@H](O)CC[C@@H]12	58	100	1	62		>=100%
C[C@]12Cc3cnn(-c4ccc(C#N)cc4)c3C[C@@H]1CC[C@@H]1[C@@H]2CC[C@]2(C)[C@@H](O)CC[C@@H]12	65	88	12	65		>=100%
Cc1c2c(nn1-c1ccccc1)C[C@@H]1CC[C@@H]3[C@H](CC[C@]4(C)C(=O)CC[C@@H]34)[C@@]1(C)C2	87	100	54	90	Active	
C[C@]12Cc3c(nn(-c4ccccc4)c3-c3ccccc3)C[C@@H]1CC[C@@H]1[C@@H]2CC[C@]2(C)[C@@H](O)CC[C@@H]12	72	12	≥ 100	47		>=100%
Cc1c2c(nn1-c1ccc(C#N)cc1)C[C@@H]1CC[C@@H]3[C@H](CC[C@]4(C)[C@@H](O)CC[C@@H]34)[C@@]1(C)C2	73	50	6	43	Active	
COc1ccc(-n2nc3c(c2C)C[C@@]2(C)[C@@H](CC[C@@H]4[C@@H]2CC[C@]2(C)[C@@H](O)CC[C@@H]42)C3)cc1	82	29	7	54	Active	
C[C@]12CC[C@H](O)CC1=CC[C@@H]1[C@@H]2CC[C@]2(C)C(n3cnc4ccccc43)=CC[C@@H]12 [GALETERONE]	≥ 76	≥ 100	30	95		81%
CNC(=O)c1ccc(N2C(=S)N(c3ccc(C#N)c(C(F)(F)F)c3)C(=O)C2(C)C)cc1F [ENZALUTAMIDE]	81	96	44	≥ 100		85%
